# Experiment: Effect of buffer (citrate) in swelling medium on degradation of H2O2
# Settings: no stabilizer
smiles,measurement,setting,value
"OO [Std H2O2, hydrogen peroxide]",Calculated degraded amount of H2O2 (%) after 2 years storage at 23° C.,"0 mM citrate, pH 5.5",22.4%
same,Calculated degraded amount of H2O2 (%) after 2 years storage at 23° C.,"0 mM citrate, pH 7",60.2%
same,Calculated degraded amount of H2O2 (%) after 2 years storage at 23° C.,"10 mM citrate, pH 4",47.6%
same,Calculated degraded amount of H2O2 (%) after 2 years storage at 23° C.,"10 mM citrate, pH 5.5",63.0%
same,Calculated degraded amount of H2O2 (%) after 2 years storage at 23° C.,"10 mM citrate, pH 7",277.1%
same,Calculated degraded amount of H2O2 (%) after 2 years storage at 23° C.,"25 mM citrate, pH 5.5",74.2%
same,Calculated degraded amount of H2O2 (%) after 2 years storage at 23° C.,"25 mM citrate, pH 7",201.5%
